Test results: PubChem BioAssay AID330 (DTP/NCI, 2004)
Inconclusive results and toxic doses are left out. The calls were made as follows: active = survival T/C of 150% or more; inactive = T/C below 125% in these data.

System: P388 leukemia ip, CD2F1 mice, survival T/C
Assay: NCI In Vivo Anticancer Drug Screen. Data for tumor model P388 Leukemia (intraperitoneal) in CD2F1 (CDF1) mice
Details: endpoint: median survival time, higher = longer survival
Outline: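 Mice carrying the transplanted tumor received test compound or vehicle. Survival was recorded in each group, and the value is the treated-group measurement divided by that of the vehicle-treated control group.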

[1] = dose: 50.0 mg/kg/injection, schedule: Q01DX009 (ip), vehicle: suspension in saline
[2] = dose: 200.0 mg/kg/injection, schedule: Q01DX009 (ip), vehicle: suspension in saline
[3] = dose: 50.0 mg/kg/injection, schedule: Q01DX009 (ip), vehicle: Klucel (hydroxypropylcellulose) (HPC)
[4] = dose: 100.0 mg/kg/injection, schedule: Q01DX009 (ip), vehicle: Klucel (hydroxypropylcellulose) (HPC)
[5] = dose: 200.0 mg/kg/injection, schedule: Q01DX009 (ip), vehicle: Klucel (hydroxypropylcellulose) (HPC)
[6] = dose: 50.0 mg/kg/injection, schedule: Q01DX005 (ip), vehicle: saline with Tween-80
[7] = dose: 100.0 mg/kg/injection, schedule: Q01DX005 (ip), vehicle: saline with Tween-80
[8] = dose: 200.0 mg/kg/injection, schedule: Q01DX005 (ip), vehicle: saline with Tween-80

Measured: T/C

O=C(/C=C/c1c[nH]c2ccccc12)c1ccc([N+](=O)[O-])cc1
inactive: dose: 15.0 mg/kg/injection, schedule: Q01DX005 (ip), vehicle: saline with Tween-80 100 % of control | dose: 30.0 mg/kg/injection, schedule: Q01DX005 (ip), vehicle: saline with Tween-80 86 % of control | dose: 60.0 mg/kg/injection, schedule: Q01DX005 (ip), vehicle: saline with Tween-80 97 % of control

O=[N+]([O-])c1cc(NC(=S)SCc2ccccc2)ccc1Cl
inactive: dose: 50.0 mg/kg/injection, schedule: Q01DX009 (ip), vehicle: saline 108 % of control | [1] 92 % of control | dose: 100.0 mg/kg/injection, schedule: Q01DX009 (ip), vehicle: saline 115 % of control | dose: 200.0 mg/kg/injection, schedule: Q01DX009 (ip), vehicle: saline 108 % of control | [2] 92 % of control

COc1cc(CC2NCCc3cc(O)ccc32)cc(OC)c1OC (centres undefined)
inactive: [3] 103 % of control | [4] 99 % of control | [5] 102 % of control

Cc1nc2n(c1/C=N/O)CCS2
inactive: dose: 50.0 mg/kg/injection, schedule: Q01DX001 (ip), vehicle: Klucel (hydroxypropylcellulose) (HPC) 90 % of control | dose: 100.0 mg/kg/injection, schedule: Q01DX001 (ip), vehicle: Klucel (hydroxypropylcellulose) (HPC) 99 % of control | dose: 200.0 mg/kg/injection, schedule: Q01DX001 (ip), vehicle: Klucel (hydroxypropylcellulose) (HPC) 93 % of control

C/C(=N/N=C(N)N)c1cn[nH]c1C
inactive: dose: 60.0 mg/kg/injection, schedule: Q01DX005 (ip), vehicle: Klucel (hydroxypropylcellulose) (HPC) 107 % of control | dose: 120.0 mg/kg/injection, schedule: Q01DX005 (ip), vehicle: Klucel (hydroxypropylcellulose) (HPC) 100 % of control

O=C(CSc1nc2ccccc2s1)NCCO
inactive: [6] 97 % of control | [7] 99 % of control | [8] 97 % of control

CC(=O)N(C)N
inactive: dose: 60.0 mg/kg/injection, schedule: Q01DX005 (ip), vehicle: saline 107 % of control | dose: 120.0 mg/kg/injection, schedule: Q01DX005 (ip), vehicle: saline 102 % of control | dose: 240.0 mg/kg/injection, schedule: Q01DX005 (ip), vehicle: saline 93 % of control

Cc1cc(=O)c2c(ccc3ccccc32)[nH]1
inactive: dose: 100.0 mg/kg/injection, schedule: Q01DX009 (ip), vehicle: saline with Tween-80 106 % of control | dose: 200.0 mg/kg/injection, schedule: Q01DX009 (ip), vehicle: saline with Tween-80 109 % of control | dose: 400.0 mg/kg/injection, schedule: Q01DX009 (ip), vehicle: saline with Tween-80 104 % of control

CCCCCSC1=NC(c2ccc(C)cc2)(c2ccc(C)cc2)C(=O)N1
inactive: dose: 50.0 mg/kg/injection, schedule: Q01DX005 (ip), vehicle: Klucel + Tween-80 100 % of control | dose: 100.0 mg/kg/injection, schedule: Q01DX005 (ip), vehicle: Klucel + Tween-80 100 % of control | dose: 200.0 mg/kg/injection, schedule: Q01DX005 (ip), vehicle: Klucel + Tween-80 98 % of control

O=C1CCSC(=S)N1c1ccc2c(c1)OCO2
inactive: [1] 105 % of control | dose: 100.0 mg/kg/injection, schedule: Q01DX009 (ip), vehicle: suspension in saline 90 % of control | [2] 98 % of control

Cc1nn(C(=O)c2ccncc2)c(C)c1N=Nc1ccc(Br)cc1
inactive: [3] 109 % of control | [4] 110 % of control | [5] 105 % of control

Fc1cccc(N=Nc2c(-c3ccccc3)nn(C(=S)S)c2-c2ccccc2)c1
inactive: [6] 104 % of control | [7] 101 % of control | [8] 106 % of control

CC(=O)NC(=O)Cc1ccccc1
inactive: dose: 100.0 mg/kg/injection, schedule: Q04DX002 (ip), vehicle: Klucel (hydroxypropylcellulose) (HPC) 94 % of control | dose: 200.0 mg/kg/injection, schedule: Q04DX002 (ip), vehicle: Klucel (hydroxypropylcellulose) (HPC) 95 % of control | dose: 400.0 mg/kg/injection, schedule: Q04DX002 (ip), vehicle: Klucel (hydroxypropylcellulose) (HPC) 97 % of control

c1ccc2c(c1)Cc1ccnnc1-2
inactive: [6] 103 % of control | [7] 103 % of control | [8] 92 % of control

COC(=O)c1c(COC(=O)NC(C)C)c2n(c1C)CS(=O)(=O)C2
inactive: dose: 12.5 mg/kg/injection, schedule: Q01DX005 (ip), vehicle: saline with Tween-80 96 % of control | dose: 25.0 mg/kg/injection, schedule: Q01DX005 (ip), vehicle: saline with Tween-80 95 % of control | [6] 92 % of control

Cc1cccc(Nc2nnc(Nc3cccc(C)n3)c3ccccc23)n1
inactive: [6] 95 % of control | [7] 91 % of control | [8] 92 % of control
